We go through 15 molecules from PubChem BioAssay (NCI).

Test systems include 786-0 renal; BT-549 breast; COLO 205 colon; EKVX NSCLC; HCT-116 colon; HCT-15 colon; HOP-92 NSCLC; KM12 colon; M14 melanoma; MCF7 breast; NCI-H23 lung; RPMI-8226 leukemia; SF-295 CNS; SK-MEL-5 melanoma; SN12C renal; SNB-75 CNS; T-47D breast; UACC-62 melanoma; UO-31 renal.
What all share (assay): growth of human tumour cells (NCI), 48 h

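How tested: cells in 96-well plates exposed to compound for 48 hours at five concentrations. TGI is the concentration that stops growth completely.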 *1 amine or outer side, *2 acyl side, *3 side chain or, on linkers, in order; H or OH if unused. Where a SMILES comes first, the peptide text is derived from it. The star is where a group is joined. γGlu = O=C(O)[CH](CCC(=O)[*:2])N[*:1]; NHOH = ON*

Consider `COc1ccc2c(c1)/C(=C\c1c(Cl)n(-c3ccccc3)c3ccccc13)C(=O)N2`, for which the TGI is 29.2 µM with 786-0 renal; 51.3 µM with BT-549 breast; 21.9 µM in the test with COLO 205 colon; 57.5 µM in the test with EKVX NSCLC; 14.6 µM in the test on HCT-116 colon; 25.3 µM with HCT-15 colon. Besides, the TGI in the test on HOP-92 NSCLC came out at 17.6 µM; in the test on KM12 colon, 14.7 µM; in the test on M14 melanoma it was 15 µM; in the test on MCF7 breast it was 29.5 µM; in the test on NCI-H23 lung it was 38.4 µM; in the test with RPMI-8226 leukemia, 45.4 µM. Besides, the TGI in the test with SF-295 CNS is 25.9 µM; in the test with SK-MEL-5 melanoma, 21.3 µM; with SN12C renal, 35.5 µM; with SNB-75 CNS, 52.2 µM; in the test with T-47D breast, 75.4 µM; with UACC-62 melanoma, 32.6 µM. The same molecule displayed a TGI with UO-31 renal of 18.3 µM.

For `O=C1CSC(c2ccccc2O)N1c1nc2cc3sc(N4C(=O)CSC4c4ccccc4O)nc3cc2s1` (stereo unspecified), the TGI in the test on 786-0 renal, with BT-549 breast, in the test on COLO 205 colon, in the test on EKVX NSCLC, in the test with HCT-116 colon and in the test on HCT-15 colon was over 100 µM each time. Moreover, the TGI in the test with HOP-92 NSCLC, with KM12 colon, in the test with M14 melanoma, in the test on MCF7 breast, in the test on NCI-H23 lung and with RPMI-8226 leukemia was over 100 µM throughout. For the same molecule, the TGI in the test on SF-295 CNS, with SK-MEL-5 melanoma, in the test on SN12C renal, with SNB-75 CNS, with T-47D breast and in the test with UACC-62 melanoma was over 100 µM throughout. The TGI with UO-31 renal was over 100 µM.

Turning to `COc1ccc(/C=C2\CCc3cc(OC)c(OC)cc3C2=O)cc1`, the TGI with 786-0 renal, in the test on BT-549 breast, with COLO 205 colon, in the test with EKVX NSCLC, in the test on HCT-116 colon and in the test with HCT-15 colon was over 10 µM throughout. The TGI in the test with HOP-92 NSCLC, in the test with KM12 colon, in the test with M14 melanoma, in the test on MCF7 breast, in the test with NCI-H23 lung and with RPMI-8226 leukemia was over 10 µM throughout. The TGI in the test on SF-295 CNS, with SK-MEL-5 melanoma, with SN12C renal, in the test with SNB-75 CNS, in the test with T-47D breast and in the test on UACC-62 melanoma was over 10 µM throughout. The molecule also registered a TGI in the test with UO-31 renal of over 10 µM.

Consider `CCOC(=O)CNC(=O)C(CCC(=O)NO)NC(=O)CCC(N)C(=O)O` (stereo unspecified) (γGlu-Glu(NHOH)-Gly-OEt; configuration not given here), for which the TGI in the test on 786-0 renal, in the test on BT-549 breast, in the test with COLO 205 colon, with EKVX NSCLC, with HCT-116 colon and in the test on HCT-15 colon was over 100 µM throughout. Besides, the TGI in the test on HOP-92 NSCLC, in the test with KM12 colon, in the test on M14 melanoma, in the test on MCF7 breast, with NCI-H23 lung and with RPMI-8226 leukemia was over 100 µM each time. Moreover, the TGI with SF-295 CNS, in the test with SK-MEL-5 melanoma, with SN12C renal, in the test on SNB-75 CNS, with T-47D breast and in the test with UACC-62 melanoma was over 100 µM throughout. Also, the TGI in the test with UO-31 renal was over 100 µM.

`N#C/C(C(=O)Nc1ccc(Cl)cc1)=C(/N)N1CCOCC1`: the TGI with 786-0 renal, in the test with BT-549 breast, with COLO 205 colon, in the test with EKVX NSCLC, in the test with HCT-116 colon and in the test on HCT-15 colon was over 100 µM throughout. Besides, the TGI with HOP-92 NSCLC, in the test on KM12 colon, with M14 melanoma, in the test on MCF7 breast, in the test with NCI-H23 lung and with RPMI-8226 leukemia was over 100 µM in each case. For the same molecule, the TGI in the test on SF-295 CNS, in the test on SK-MEL-5 melanoma, in the test with SN12C renal, in the test with SNB-75 CNS, with T-47D breast and in the test with UACC-62 melanoma was over 100 µM throughout. In the test with UO-31 renal, this molecule had a TGI of over 100 µM.

Regarding `NCCNCCCNC(=O)c1cc(-c2ccccc2)nc2ccccc12`, the TGI with 786-0 renal was 61.8 µM; in the test on BT-549 breast it was over 100 µM; in the test on COLO 205 colon, 30.9 µM; in the test on EKVX NSCLC, over 100 µM; with HCT-116 colon it was over 100 µM; in the test with HCT-15 colon, over 100 µM. In addition, the TGI in the test on HOP-92 NSCLC is 55.4 µM; in the test with KM12 colon it was over 100 µM; with M14 melanoma, 28.3 µM; in the test with MCF7 breast, over 100 µM; with NCI-H23 lung, over 100 µM; in the test with RPMI-8226 leukemia, over 100 µM. In addition, the TGI was over 100 µM with SF-295 CNS; 30.5 µM in the test with SK-MEL-5 melanoma; over 100 µM in the test on SN12C renal; over 100 µM with T-47D breast; 46.3 µM in the test on UACC-62 melanoma; over 100 µM in the test on UO-31 renal.

Consider `COc1ccc(Nc2nc3ccc(C(F)(F)F)cc3nc2C(=O)O)cc1`, for which the TGI with 786-0 renal is over 100 µM; in the test with BT-549 breast it was 49.4 µM; in the test on COLO 205 colon, over 100 µM; with EKVX NSCLC it was over 100 µM; in the test with HCT-116 colon, over 100 µM; in the test on HCT-15 colon, over 100 µM. Besides, the TGI was 92 µM in the test on HOP-92 NSCLC; 70.9 µM in the test with KM12 colon; over 100 µM in the test on M14 melanoma; over 100 µM in the test on MCF7 breast; 93.3 µM with NCI-H23 lung; 66.5 µM with RPMI-8226 leukemia. The TGI in the test on SF-295 CNS is 89.4 µM; in the test on SK-MEL-5 melanoma, over 100 µM; with SN12C renal, over 100 µM; in the test with SNB-75 CNS, 78.6 µM; in the test with T-47D breast, over 100 µM; in the test with UACC-62 melanoma, 67.3 µM.

For the molecule `COCOc1c(C(OCOC)c2cnc(Sc3ccccc3)n2C)ccc(OC)c1OC` (stereo unspecified), the TGI with 786-0 renal, with BT-549 breast, in the test with EKVX NSCLC, with HCT-116 colon, in the test with HCT-15 colon and in the test with HOP-92 NSCLC was over 100 µM throughout. In addition, the TGI in the test with KM12 colon, in the test with MCF7 breast, in the test with NCI-H23 lung, with RPMI-8226 leukemia, with SF-295 CNS and in the test with SK-MEL-5 melanoma was over 100 µM in each case. Also, the TGI in the test with SN12C renal, in the test with SNB-75 CNS, with T-47D breast, with UACC-62 melanoma and in the test with UO-31 renal was over 100 µM each time.

For `NS(=O)(=O)c1nnc(NS(=O)(=O)c2ccc(Cl)cc2)s1`, the TGI with 786-0 renal, with BT-549 breast, in the test with COLO 205 colon, with EKVX NSCLC, in the test on HCT-116 colon and in the test on HCT-15 colon was over 100 µM each time. In addition, the TGI in the test on HOP-92 NSCLC, with KM12 colon, with M14 melanoma, with MCF7 breast, in the test on NCI-H23 lung and in the test on RPMI-8226 leukemia was over 100 µM throughout. For the same molecule, the TGI in the test on SF-295 CNS, in the test with SK-MEL-5 melanoma, in the test with SN12C renal, with T-47D breast, with UACC-62 melanoma and in the test with UO-31 renal was over 100 µM each time.

With `Nc1c(Br)cc(-c2nc3ccccc3s2)cc1Br`, the TGI in the test with 786-0 renal, in the test with BT-549 breast, in the test on COLO 205 colon, in the test with EKVX NSCLC, with HCT-116 colon and in the test on HCT-15 colon was over 100 µM throughout. The TGI with HOP-92 NSCLC, with KM12 colon, in the test with M14 melanoma, in the test with MCF7 breast, in the test with SF-295 CNS and in the test on SK-MEL-5 melanoma was over 100 µM each time. Besides, the TGI in the test with SN12C renal, in the test on SNB-75 CNS, with T-47D breast, in the test with UACC-62 melanoma and with UO-31 renal was over 100 µM throughout.

As to `COc1ccc2c(c1)CCc1c-2n(CCN2CCOCC2)c2ccc(OC)cc12`, the TGI with 786-0 renal, in the test with BT-549 breast, with COLO 205 colon, with HCT-116 colon, with HCT-15 colon and in the test with HOP-92 NSCLC was over 100 µM in each case. Also, the TGI in the test on KM12 colon, in the test with M14 melanoma, with MCF7 breast, in the test on NCI-H23 lung, in the test on RPMI-8226 leukemia and in the test with SF-295 CNS was over 100 µM throughout. The TGI in the test with SK-MEL-5 melanoma, in the test with SN12C renal, in the test on SNB-75 CNS, in the test with T-47D breast, with UACC-62 melanoma and in the test with UO-31 renal was over 100 µM throughout.

For the molecule `COC(=O)[C@@H]1COC(C(C)(C)C)N1C(=O)C(c1ccccc1)c1ccccc1` (stereo partly specified), the TGI with 786-0 renal, in the test on BT-549 breast, in the test with COLO 205 colon, with EKVX NSCLC, with HCT-116 colon and in the test on HCT-15 colon was over 100 µM throughout. In addition, the TGI with HOP-92 NSCLC, in the test with KM12 colon, in the test on M14 melanoma, with MCF7 breast, in the test with NCI-H23 lung and with SF-295 CNS was over 100 µM each time. In addition, the TGI in the test on SK-MEL-5 melanoma, in the test on SN12C renal, in the test on SNB-75 CNS, in the test on T-47D breast, in the test with UACC-62 melanoma and with UO-31 renal was over 100 µM in each case.

On to `CNc1ncnc2c1cnn2CCCCO`, for which the TGI with 786-0 renal, with BT-549 breast, in the test on COLO 205 colon, with EKVX NSCLC, with HCT-116 colon and in the test with HCT-15 colon was over 100 µM each time. In addition, the TGI with HOP-92 NSCLC, in the test with M14 melanoma, in the test with MCF7 breast, in the test with NCI-H23 lung, with RPMI-8226 leukemia and with SF-295 CNS was over 100 µM in each case. Besides, the TGI in the test on SK-MEL-5 melanoma, with SN12C renal, in the test on T-47D breast, in the test on UACC-62 melanoma and in the test with UO-31 renal was over 100 µM each time.

As to `COc1cc2c(cc1OC)C(=O)/C(=C/c1cc(Cl)cc(Cl)c1)C2`, the TGI in the test with 786-0 renal is over 89.7 µM; with BT-549 breast it was over 100 µM; in the test on COLO 205 colon it was over 100 µM; with EKVX NSCLC it was over 100 µM; in the test with HCT-116 colon, over 100 µM; in the test with HCT-15 colon it was over 100 µM. The TGI with HOP-92 NSCLC is 99.6 µM; in the test with KM12 colon, over 21.4 µM; with M14 melanoma, over 100 µM; in the test on MCF7 breast, over 100 µM; with NCI-H23 lung, over 100 µM; in the test on RPMI-8226 leukemia, over 100 µM. The TGI is over 24.1 µM with SK-MEL-5 melanoma; over 100 µM in the test with SN12C renal; over 100 µM with T-47D breast; over 95.8 µM in the test on UACC-62 melanoma; over 100 µM in the test with UO-31 renal.

Consider `CSc1ccc(/C=C2\N=C(c3ccccc3)N(/N=C3\C(=O)Nc4ccccc43)C2=O)cc1`, for which the TGI in the test with 786-0 renal, in the test on BT-549 breast, with COLO 205 colon, in the test on EKVX NSCLC, in the test with HCT-116 colon and in the test on HCT-15 colon was over 100 µM each time. Besides, the TGI in the test on HOP-92 NSCLC, in the test with KM12 colon, with M14 melanoma, with MCF7 breast, in the test with NCI-H23 lung and in the test with SF-295 CNS was over 100 µM throughout. The TGI in the test on SK-MEL-5 melanoma, in the test with SN12C renal, in the test with SNB-75 CNS, with T-47D breast, with UACC-62 melanoma and in the test on UO-31 renal was over 100 µM each time.
